Data on one compound can be found in publication PMC3423427, “Design and Synthesis of Potent N-Acylethanolamine-hydrolyzing Acid Amidase (NAAA) Inhibitor as Anti-Inflammatory Compounds” (PLoS ONE, 2012).

Where two headings read alike, the source gives them in different places.

The IC50 is the concentration at which inhibition is half-maximal.

The target of series [1] is T1, monoacylglycerol lipase (MGL) (Homo sapiens, UniProt Q99685).
T1 sequence (Q99685 1-303): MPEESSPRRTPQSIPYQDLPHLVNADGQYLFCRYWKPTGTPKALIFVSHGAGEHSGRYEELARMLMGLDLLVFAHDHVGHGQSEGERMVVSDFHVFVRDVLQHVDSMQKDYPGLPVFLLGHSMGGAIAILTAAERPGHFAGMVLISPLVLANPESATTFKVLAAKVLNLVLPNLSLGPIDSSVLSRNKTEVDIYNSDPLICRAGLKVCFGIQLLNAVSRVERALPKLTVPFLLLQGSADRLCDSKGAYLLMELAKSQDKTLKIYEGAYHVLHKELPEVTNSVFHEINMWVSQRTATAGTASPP
The series is described as follows: MGL activity assay (Figure S1). The format is biochemical. The conditions noted are these: 100 µM (Figure S1). The procedure:
(§1) Supplementary file pone.0043023.s001.pdf: Figure S1 Effect of vehicle (open bar) and compound 16 (100 µM, closed bars) on the activity of NAAA, FAAH, MGL, and ASAH. ***, p<0.001, one-way ANOVA, n = 3. (PDF) Click here for additional data file.

Series [2] addresses T2, N-acylsphingosine amidohydrolase (ASAH) (Homo sapiens, UniProt Q13510).
T2 sequence (Q13510 22-395): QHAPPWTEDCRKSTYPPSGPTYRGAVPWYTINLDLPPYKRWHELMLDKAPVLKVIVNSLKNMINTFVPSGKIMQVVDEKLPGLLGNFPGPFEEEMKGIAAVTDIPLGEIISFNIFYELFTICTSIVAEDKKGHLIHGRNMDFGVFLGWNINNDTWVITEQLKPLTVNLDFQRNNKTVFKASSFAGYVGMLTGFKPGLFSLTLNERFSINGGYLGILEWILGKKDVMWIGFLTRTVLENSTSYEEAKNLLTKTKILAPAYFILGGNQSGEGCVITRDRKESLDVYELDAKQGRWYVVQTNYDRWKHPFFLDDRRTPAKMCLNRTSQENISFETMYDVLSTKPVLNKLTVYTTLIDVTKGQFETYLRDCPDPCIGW
The experiment in a line: ASAH activity assay (Figure S1). It is filed as biochemical. The following applies: 100 µM (Figure S1). The procedure:
as §1

Series [3] addresses T3, rat FAAH (Rattus norvegicus, UniProt P97612).
T3 construct: made in house; host or cells: HEK293 cells stably overexpressing rat FAAH (HEK293-rFAAH), a gift from D. Piomelli; crude cell extract
T3 sequence (P97612 1-579): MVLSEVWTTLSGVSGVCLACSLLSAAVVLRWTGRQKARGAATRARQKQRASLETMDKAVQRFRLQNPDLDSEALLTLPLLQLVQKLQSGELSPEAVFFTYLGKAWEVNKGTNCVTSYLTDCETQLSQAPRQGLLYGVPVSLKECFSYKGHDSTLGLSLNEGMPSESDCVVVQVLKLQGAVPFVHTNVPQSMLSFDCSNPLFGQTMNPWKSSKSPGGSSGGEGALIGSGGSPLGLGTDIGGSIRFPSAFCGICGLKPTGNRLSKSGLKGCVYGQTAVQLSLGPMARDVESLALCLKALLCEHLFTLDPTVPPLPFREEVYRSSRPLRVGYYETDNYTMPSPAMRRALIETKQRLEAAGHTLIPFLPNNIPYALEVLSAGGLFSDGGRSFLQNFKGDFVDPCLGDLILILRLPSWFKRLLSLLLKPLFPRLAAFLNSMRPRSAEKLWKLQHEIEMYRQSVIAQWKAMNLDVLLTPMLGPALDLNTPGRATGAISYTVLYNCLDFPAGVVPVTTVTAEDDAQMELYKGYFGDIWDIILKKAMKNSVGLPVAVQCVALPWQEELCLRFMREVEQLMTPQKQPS
The series is described as follows: FAAH enzymatic assay (recombinant rFAAH protein, LC/MS). The format is biochemical.
Protocol: HEK293-rNAAA or HEK293-rFAAH cells were harvested, washed with PBS, sonicated in 20 mM Tris-HCl (pH 7.5) containing 0.32 M sucrose, and centrifuged at 800 × g for 15 min at 4°C. The supernatants were collected and protein concentrations were measured by BCA protein assay kit (Pierce, Shanghai, China). […] The reactions were terminated by adding 0.2 mL methanol containing 1 nmol heptadecanoic acid and analyzed in LC/MS.
We use an Agilent 1200-LC system coupled to a 3200Q TRAP-MS detector equipped with an ESI interface (Agilent Technologies, Shanghai, China). […] The column temperature was set at 40°C. […] Mass spectrometer (MS) detection was ionized by positive-ion atmospheric pressure chemical ionization mode (APCI^+) and monitored in MRM mode. […] Quantifications were calculated at chromatographic peak areas by using Analyst® version 1.4.1. software (Applied Biosystems).

The conditions of series [4]: 80% rat plasma, 37°C. The protocol: In terms of the biological stability test, rat plasma was usually chosen as reference in vitro model for drug stability studies, [20], [21]. The hydrolysis of compound 16 was studied in 80% rat plasma at 37°C physiological condition.

For `O=C(CCc1ccc(-c2ccccc2)cc1)N1CCCC1` [Compound 16, 1–(2–Biphenyl–4–yl)ethyl–carbonyl pyrrolidine], the “inhibitory effect on MGL” value in series [1] was “no inhibitory effect”. Besides, in series [2], the “inhibitory effect on ASAH” value was “no inhibitory effect”. The IC50 in series [3] (IC50 ± S.E.M., triplicate, 25 µM anandamide, pH 8.0) is over 100 µM. In addition, in series [3] (at concentration of 100 µM), the “reduction of FAAH activity” value is recorded as “no more than 30%”. In addition, in series [4], the “compound remaining, Rat Serum 8h” value is recorded as 89% and the “compound remaining, Rat Serum 16h” value was found to be 64%. In addition, in series [4] (listed as compound 16), the “compound remaining, Rat Serum 8h” value stood at 89% and the “compound remaining, Rat Serum 16h” value is 64%.
